Measurements published in US6642254B2, “Heterocyclic compounds and their therapeutic use” (Darwin Discovery, Ltd., priority 1998, dated 2003).
Converted amounts (≈) assume the structure as drawn. Where two headings read alike, the source gives them in different places.

How the values were obtained:
[1] = Solubility in water at pH 7; format: physicochemical
Method: The solubility of the compound of Example 8, in water at pH 7, was 0.2 mg/ml. The solubility of the corresponding free base, under the same conditions, was 0.002 mg/ml.

[2] = Pharmacokinetic profile in cannulated rats (oral dosing); format: in vivo; details: rat, oral dose 3 mg/kg, plasma
Method: The pharmacokinetic profile of the compounds of the invention is determined in rats cannulated in the right carotid artery for blood collection. For iv dosing, the compound is prepared in a suitable formulation, for example 10% v/v DMSO, 50% v/v PEG 400 in water, and dosing is carried out by cannulation of the left jugular vein. Samples are collected at 5 min, 0.5, 1, 2, 4, 6 and 8 hours post-dosing. For oral dosing, the compound is prepared in a suitable formulation such as 0.4% w/v methylcellulose in water Samples are collected at 0.5, 1, 2, 4, 6 and 8 hours post-dosing. In some cases, samples are also collected at 12 hours post-dosing. Plasma is obtained by centrifugation of the each blood sample and drug concentration is then determined using standard methods, such as liquid chromatography-mass spectrometry following protein precipitation.
Results are tabulated below, and are also shown in the accompanying drawing. The drawing is a graph of PK data following oral dosing in the rat; PC (plasma concentration; ng/ml) is plotted against t (time; hours). ▪ represents the compound of Example 8, and · the free base. The superiority of the novel compound is evident.

Row | SMILES | solubility [1] [µg/mL] | AUC0-last (po) [2] [ng·h/mL] | Cmax (po) [2] [ng/mL] | t1/2 (po) [2] [h] | solubility ([1]; aqueous buffer, read-out: solubility) [µg/mL] | AUC(0-t) ([2]; read-out: AUC0-last (po)) [ng·h/mL] | half-life ([2]; read-out: t1/2 (po) (converted)) [h]
1 | COc1ccc(C(=O)Nc2c(Cl)c[n+]([O-])cc2Cl)c2ccc(C(F)(F)F)nc12 [Example 8, 8-Methoxy-2-trifluoromethylquinoline-5-carboxylic Acid (3,5-dichloro-1-oxypyridin-4-yl)amide] | 200 (≈ 463 µM) | 30169 | 3054 | 20 | – | – | –
2 | COc1ccc(C(=O)Nc2c(Cl)cncc2Cl)c2ccc(C(F)(F)F)nc12 [Free base, 8-Methoxy-2-trifluoromethylquinoline-5-carboxylic acid (3,5-dichloropyridin-4-yl)amide] | – | – | 1008 | – | 2 (≈ 4.81 µM) | 6860 | 4.5
